{
  "source": "patent US20250367182A1",
  "about": "“METHOD FOR INDUCING IN-SITU REGENERATION OF MAMMAL AND USE THEREOF” (INSTITUTE OF ZOOLOGY, CHINESE ACADEMY OF SCIENCES, priority 2022, published 2025)",
  "key": {"[1]": {"test_system": "bleomycin-induced lung fibrosis injury", "assay": "bleomycin-induced chronic injury model of lung fibrosis", "format": "in vivo, C57B1/6 mice"}, "scalded skin": {"test_system": "scalded skin", "assay": "mouse skin scald model", "format": "in vivo, mice", "conditions": "CHX 20 mg/kg"}, "[2]": {"test_system": "STING-TBK1-IRF3 signaling pathway / ISG genes in mouse primary fibroblasts and macrophages", "assay": "CHX-induced ISG gene expression in primary cells (RNA-seq, Ribo-seq, qPCR, immunofluorescence)", "format": "cell-based"}, "[3]": {"test_system": "2 mm diameter mouse ear hole", "assay": "2 mm ear hole trauma mouse model (ear hole closure)", "set-up": "species or system C57BL/6 mice", "conditions": "in vivo"}, "[4]": {"test_system": "4 mm diameter mouse ear hole", "set-up": "species or system mice", "conditions": "in vivo"}, "[5]": {"test_system": "protein translation process"}, "[6]": {"conditions": "CHX 20 mg/kg, lung function testing"}},
  "note": "“Also recorded” adds a separate entry of the source. Where two headings read alike, the source gives them in different places.",
  "data": [
    {"smiles": "C[C@@H]1C[C@@H]([C@H](O)CC2CC(=O)NC(=O)C2)C(=O)[C@@H](C)C1", "note": "[CHX, 4-((R)-2-((1S,3S,5S)-3,5-dimethyl-2-oxocyclohexyl)-2-hydroxyethyl)piperidine-2,6-dione]", "values": [
      {"measurement": "survival rate", "setting": "[1]; CHX 20 mg/kg i.p. every two days from 2 days after surgery, 18th day of treatment", "value": 75, "unit": "%"},
      {"measurement": "body weight loss", "setting": "[1]; CHX 20 mg/kg, ***P<0.001", "value": "significantly inhibited the body weight loss"},
      {"measurement": "lung fibrosis (HE staining and Sirius red staining)", "setting": "[1]; CHX 20 mg/kg, after 14 days of treatment", "value": "significantly inhibited"},
      {"measurement": "body weight", "setting": "[1]; CHX 20 mg/kg, after 15 days", "value": "~85", "unit": "%"},
      {"measurement": "respiratory rate", "setting": "[1]; [6]", "value": "significantly maintained normal"},
      {"measurement": "tidal volume", "setting": "[1]; [6]", "value": "significantly maintained normal"},
      {"measurement": "tissue integrity and fibrosis (HE staining)", "setting": "[1]; CHX administration started 9 days after bleomycin injury (more severe model)", "value": "significantly restored tissue integrity and reduced fibrosis"},
      {"measurement": "development-related genes (blood vessels, circulatory system), RNA-Seq", "setting": "[1]; CHX-treated group", "value": "upregulated"},
      {"measurement": "genes related to respiratory system development, RNA-Seq", "setting": "[1]; CHX-treated group", "value": "promoted the upregulation"},
      {"measurement": "fibrosis-related genes (extracellular matrix, collagen), RNA-Seq", "setting": "[1]; CHX-treated group vs control after injury", "value": "significantly downregulate"},
      {"measurement": "collagen accumulation (Sirius red staining)", "setting": "scalded skin", "value": "reduced collagen accumulation"},
      {"measurement": "skin tissue regeneration (histochemical staining)", "setting": "scalded skin", "value": "significantly promoted the regeneration of epidermis, hair follicles, glands, dermis, and blood vessels"},
      {"measurement": "scar area", "setting": "scalded skin; after 40 days of administration", "value": "significantly reduced scar area"},
      {"measurement": "expression of classical ISGs (Mx2, Ifit1, Cxcl10, Ifih1), qPCR", "setting": "[2]; CHX, fibroblasts and macrophages", "value": "upregulate the expression of classical ISGs"},
      {"measurement": "STING-TBK1-IRF3 signaling (perinuclear STING, nuclear IRF3), immunofluorescence", "setting": "[2]; CHX, in vitro", "value": "activated ISGs by activating the STING-TBK1-IRF3 signaling pathway"},
      {"measurement": "number of genes upregulated at both transcriptional and translational levels in both cell types", "setting": "[2]; CHX, mouse primary fibroblasts and macrophages, RNA-seq and Ribo-seq", "value": 32, "unit": "genes"},
      {"measurement": "HE staining of auricle tissue", "setting": "[3]", "value": "healed the tissue after damage and formed granulation tissue"},
      {"measurement": "HE staining of auricle tissue: healing of trauma", "setting": "[3]", "value": "completely healed"},
      {"measurement": "HE staining of wound site: regenerated tissues", "setting": "[3]", "value": "regeneration of tissues and tissue derivatives such as hair follicles, glands, cartilage, muscles and blood vessels"},
      {"measurement": "KI67 immunohistochemical staining of auricle tissue (basal cells)", "setting": "[3]", "value": "expressed a large amount of KI67"},
      {"measurement": "closure of 2 mm ear hole wound", "setting": "[3]", "value": "completely closed"},
      {"measurement": "dose dependence of promotion of 2 mm ear hole healing", "setting": "[3]", "value": "dose-dependent"},
      {"measurement": "healing condition of 2 mm ear hole (photograph)", "setting": "[3]", "value": "completely closed"},
      {"measurement": "healing effect compared with Ani", "setting": "[3]", "value": "better"},
      {"measurement": "healing effect with different administration manners", "setting": "[3]", "value": "healing effects were produced; also recorded: different manners of administration had the effect of promoting regeneration"},
      {"measurement": "healing of the 2 mm ear hole", "setting": "[3]", "value": "significantly promote the healing of the ear hole"},
      {"measurement": "closure of 2 mm diameter ear holes", "setting": "[3]; ip", "value": "promoted the closure"},
      {"measurement": "wound area of 4 mm ear hole", "setting": "[4]", "value": "significantly reduced"}
    ]},
    {"smiles": "Cc1nn(CC(F)(F)F)cc1Nc1ncc(Br)c(NCc2ccc(S(N)(=O)=O)cc2)n1", "note": "[GSK8612]", "values": [
      {"measurement": "expression of ISG genes induced by CHX", "setting": "[2]; GSK8612 5 μM, CHX 1 μg/ml", "value": "significantly inhibited the expression of ISG genes"},
      {"measurement": "CHX-induced ear hole regeneration", "setting": "[3]", "value": "significantly inhibited"}
    ]},
    {"smiles": "O=C1N[C@@H]2C(=C[C@H](O)[C@@H](O)[C@H]2O)c2cc3c(c(O)c21)OCO3", "note": "[Narciclasine]", "values": [
      {"measurement": "inhibition of protein translation (Puromycin incorporation)", "setting": "[5]; CHX as control", "value": "could significantly inhibit the protein translation process"},
      {"measurement": "healing of 2 mm ear holes", "setting": "[3]", "value": "significantly promote the healing of 2 mm ear holes"},
      {"measurement": "regenerated tissues in closed ear holes (histochemical and Masson staining)", "setting": "[3]", "value": "could regenerate tissues such as hair follicles, glands, cartilage and muscles, and tissue derivatives"}
    ]},
    {"smiles": "O=C1N[C@H]2[C@H](O)[C@H](O)[C@@H](O)[C@H](O)[C@@H]2c2cc3c(c(O)c21)OCO3", "note": "[Pancratistatin]", "values": [
      {"measurement": "inhibition of protein translation (Puromycin incorporation)", "setting": "[5]", "value": "could significantly inhibit the protein translation process"},
      {"measurement": "closure of 2 mm ear hole", "setting": "[3]", "value": "completely closed"},
      {"measurement": "nature of the closure (HE and Masson staining)", "setting": "[3]", "value": "identified as a regeneration event"}
    ]},
    {"smiles": "COc1ccc(C[C@H]2NC[C@H](O)[C@H]2OC(C)=O)cc1", "note": "[Ani, Anisomycin]", "values": [
      {"measurement": "healing of the 2 mm ear hole", "setting": "[3]", "value": "significantly promote the healing of the ear hole"}
    ]}
  ]
}
